The text below walks through data of patent US20210261512A1, “NOVEL COMPOUNDS” (INFLAZOME LIMITED, priority 2018, published 2021).

pIC50: −log10 of the molar value. Some results are limits rather than exact numbers.

The AUC is concentration integrated over time. Higher therefore signals high exposure. Broadly, the CL/F is the apparent clearance, not corrected for the fraction that reaches the circulation. As usually defined, the Cmax is the peak of the concentration-time curve. Usually Tmax stands for the time from dosing to the highest level. By bioavailability is commonly meant dose-corrected exposure relative to a reference, in per cent. The term half-life denotes the time needed for the level to fall by half in the phase considered. Read a low half-life as rapid decline. Broadly, the pIC50 is −log10 of the IC50, conventionally taken in molar units. Broadly, the clearance is a measure of how efficiently the substance is removed, as volume per time. Read a high clearance as a high capacity for elimination.

The test system of one data set is NLRP3 inflammasome. Conditions: previously characterised weak NLRP3 inhibitors; nonspecific; cited from earlier work.
A short description of a further data set: PK, oral administration. The class given is in vivo, male Sprague Dawley rats. To be noted: male, Sprague Dawley, plasma, rat, 3 mg/kg. Here is the method:
Pharmacokinetic parameters were determined in male Sprague Dawley rats (Vital River Laboratory Animal Technology Co Ltd, Beijing, China, 6-9 weeks old). Animals were maintained under a 12 h light/dark cycle. Animals had free access to food and water, except that orally dosed animals were food deprived overnight prior to the study.
For intravenous administration, compounds were formulated as a solution (in DMSO:water [10:90] or in DMSO:PBS [10:90]) in 2 mL/kg dosing volume and administered via tail vein. For oral administration, compounds were formulated as a solution (in 0.5% methylcellulose in water) in […] dosing volume and administered orally.
Serial blood samples (about 200 μL) were taken from each animal at each of 8 time-points post dose ([…], 0.25, 0.5, 1, 2, 4, 8 and 24 h). Samples were held on ice for no longer than 30 minutes before centrifugation (5,696 rpm (3,000 g) for 15 minutes) for plasma generation. Plasma was frozen on dry ice prior to bioanalysis. PK parameters were generated from LC-MS/MS data using Phoenix WinNonlin 6.3 software.

For a further data set, the target named is NLRP3 (Homo sapiens, UniProt Q96P20). The data set is described as follows: THP-1 cells pyroptosis assay. It is filed as cell-based. More on the design: Seed THP-1 cells (25,000 cells/well) containing 1.0 μg/ml LPS; host or cells: THP-1. To be noted: LPS 1.0 μg/ml, nigericin 5 μM, resazurin readout, 10 μM top dose (Example 2: top dose of 30 μM). Summed up: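 Pyroptosis induced by 5 μM nigericin (1 h) in LPS-primed (1 μg/ml) THP-1 cells, 25,000/well in serum-free RPMI, after 3 h compound pre-treatment (8 points, 10 μM top unless stated). Surviving cells measured with 100 μM resazurin, Ex 560/Em 590; IC50 via variable-slope 4-parameter regression.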
NLRP3, sequence (Q96P20 whole entry): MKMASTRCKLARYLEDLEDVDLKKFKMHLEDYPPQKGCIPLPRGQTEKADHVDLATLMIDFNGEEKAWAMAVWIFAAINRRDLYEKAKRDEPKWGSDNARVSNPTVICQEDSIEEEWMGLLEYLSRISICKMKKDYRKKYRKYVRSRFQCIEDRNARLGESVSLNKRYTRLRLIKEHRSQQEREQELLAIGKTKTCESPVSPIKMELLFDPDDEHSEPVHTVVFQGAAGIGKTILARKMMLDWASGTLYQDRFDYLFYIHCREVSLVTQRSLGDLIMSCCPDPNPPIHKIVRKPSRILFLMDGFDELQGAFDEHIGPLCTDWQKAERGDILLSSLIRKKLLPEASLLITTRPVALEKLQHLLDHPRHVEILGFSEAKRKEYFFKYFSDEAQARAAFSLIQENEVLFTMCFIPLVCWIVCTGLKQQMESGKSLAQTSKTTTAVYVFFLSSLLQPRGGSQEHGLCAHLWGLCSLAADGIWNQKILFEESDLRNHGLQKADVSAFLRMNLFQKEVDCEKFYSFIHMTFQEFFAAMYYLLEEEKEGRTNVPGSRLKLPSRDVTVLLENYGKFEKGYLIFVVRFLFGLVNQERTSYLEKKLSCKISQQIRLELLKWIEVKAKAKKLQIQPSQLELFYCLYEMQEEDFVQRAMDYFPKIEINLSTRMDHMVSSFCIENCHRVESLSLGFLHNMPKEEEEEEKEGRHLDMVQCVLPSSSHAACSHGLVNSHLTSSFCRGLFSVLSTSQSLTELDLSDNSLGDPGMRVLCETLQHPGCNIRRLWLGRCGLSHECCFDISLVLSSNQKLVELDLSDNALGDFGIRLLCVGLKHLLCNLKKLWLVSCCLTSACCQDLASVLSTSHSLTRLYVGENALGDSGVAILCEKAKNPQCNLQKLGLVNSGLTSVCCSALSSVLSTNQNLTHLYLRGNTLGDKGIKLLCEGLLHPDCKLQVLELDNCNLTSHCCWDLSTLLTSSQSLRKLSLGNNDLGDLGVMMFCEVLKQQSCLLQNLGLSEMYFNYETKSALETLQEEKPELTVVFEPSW
Background: The colour change of resazurin is a common sign of viable cells or microbes.

Data set [1] is described as follows: PK, intravenous administration. It is filed as in vivo. To be noted: rat, plasma, male Sprague Dawley rats, dose about 1 mg/kg. The essentials:
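Male Sprague Dawley rats (6-9 weeks); IV dosing via tail vein as solution in DMSO:water or DMSO:PBS (10:90), oral dosing in 0.5% methylcellulose after overnight fasting. Plasma sampled at 8 time-points to 24 h; parameters derived from LC-MS/MS data.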

In the case of `O=[N+]([O-])C=Cc1ccc2c(c1)OCO2` [3,4-methylenedioxy-β-nitrostyrene], the NLRP3 inhibition result with NLRP3 inflammasome is recorded as “limited potency”.

For the compound `CN(C)Cc1ccc(S(=O)(=O)c2nnc(Nc3c4c(cc5c3CCC5)CCC4)[nH]2)cc1` [Example 43, 5-((4-((dimethylamino)methyl)phenyl)sulfonyl)-N-(1,2,3,5,6,7-hexahydro-s-indacen-4-yl)-4H-1,2,4-triazol-3-amine], in the data set “PK, oral administration”, the area under the curve (AUC) was found to be 878 ng·h/mL, the CL/F came out at 61.5 mL/min/kg, the maximum concentration (Cmax) came to 594 ng/mL and the Tmax was 15 min. In the data set “PK, oral administration”, the bioavailability stood at 48.6% and the half-life is 72 min. The compound further had a negative logarithm of the IC50 (pIC50) against NLRP3 not below 6.00. In data set [1], this compound had an AUC of 602 ng·h/mL, a clearance of 28 mL/min/kg and a half-life of 42 min. For the same compound, the Vd in data set [1] (read-out: Vdss) was 0.66 L/kg.

Regarding `C[S+](C)[O-]` [dimethyl sulfoxide], the NLRP3 inhibition entry in the data set on NLRP3 inflammasome is reported as “limited potency”.
